Measured values published in patent US20250000877A1, “COMPOSITION CONTAINING TAURODEOXYCHOLIC ACID OR PHARMACEUTICALLY ACCEPTABLE SALT THEREOF AS ACTIVE INGREDIENT FOR PREVENTING OR TREATING VIRAL INFECTIOUS DISEASES” (SHAPERON INC., priority 2021, published 2025).
Where two headings read alike, the source gives them in different places.

Legend:
[1] = system: influenza virus CA04 (human H1N1); assay: Lung lesions / histopathological scoring in influenza virus-infected animal model; type: in vivo, mice; conditions: for pathological scoring of lung lesions: score 0-4 per Table 2
Method: Specifically, female BLAB/C mice aged 7 weeks were purchased and allowed to acclimate for one week before the experiments commenced. The experimental animals were housed under conditions of 22±2° C. temperature, 55±5% relative humidity, and a 12-hour light-dark cycle. Water was provided ad libitum, and sterilized feed was freely accessible.
Next, as shown in the schematic diagram of FIG. 1, influenza virus CA04 (human H1N1) was intranasally inoculated at a concentration of 2LD50 (30 μl/mouse), and the drug was administered by dividing into four groups as shown in [Table 1] below. The positive control group was administered dexamethasone, an anti-inflammatory drug, as a drug, and the experimental group was administered HY209 as a low dose (1 mpk) or a high dose (4 mpk) as a drug. The drug was administered intraperitoneally at a dose of 100 μl/mouse on the third day after virus infection. In addition, lung tissues were separated and stored after autopsy of each group on the 7th day (7 dpi), 10th day (10 dpi), and 11th day (11 dpi) of virus infection.
Specifically, each of the test groups of Example 1 was autopsied on the 7th day (7 dpi), 10th day (10 dpi), and 11th day (11 dpi) of viral infection, and then the lungs were separated. The separated lung lesions were visually confirmed (FIGS. 3a to 3c), and lung lesions were scored according to the pathological scoring criteria of Table 2 below, and then graphed (FIGS. 4a and 4b).

IL-1β = type: in vivo, mice
[2] = 7 dpi, 1 mpk intraperitoneally from DPI 3, virus infection group G1 2.8±0.84
[3] = 11 dpi, 1 mpk intraperitoneally from DPI 3, virus infection group G1 4±0

| SMILES | pathological scoring of lung lesions [1, 2] | reduction in pathological scores compared to the virus infection group (G1) ([1]; 7 dpi, 4 mpk (G4), P=0.046) | pathological scoring of lung lesions ([1]; 7 dpi, 4 mpk intraperitoneally from DPI 3, virus infection group G1 2.8±0.84) | reduction in pathological scores compared to the virus infection group (G1) ([1]; 11 dpi, 1 mpk (G2 P=0.002, G3 P=0.013)) | pathological scoring of lung lesions [1, 3] | reduction in pathological scores compared to the virus infection group (G1) ([1]; 11 dpi, 4 mpk (G4), P=0.0005) | pathological scoring of lung lesions ([1]; 11 dpi, 4 mpk intraperitoneally from DPI 3, virus infection group G1 4±0) | production of inflammatory cells in the lungs ([1]; low (1 mpk) or high (4 mpk) dose groups compared to the virus infection group, summary statement) | IL-1β levels (IL-1β; […], serum samples, HY209 1 mpk (G3) vs G1) | production of inflammatory cytokine IL-1β in the lungs (IL-1β; mouse, in vivo) | IL-1β levels in lung tissue samples (IL-1β; mouse, in vivo, 1 mg/kg) | IL-1β levels in lung tissue samples (IL-1β; mouse, in vivo, 4 mg/kg) |
| --- | --- | --- | --- | --- | --- | --- | --- | --- | --- | --- | --- | --- |
| C[C@H](CCC(=O)NCCS(=O)(=O)O)[C@H]1CC[C@H]2[C@@H]3CC[C@@H]4C[C@H](O)CC[C@]4(C)[C@H]3C[C@H](O)[C@]12C [HY209, Sodium taurodeoxycholate] | 2.6±0.55 | statistically significant reduction | 1.8±0.45 | statistically significant reduction | 2.8±0.84 | statistically significant reduction | 2.29±0.76 | reduced | significant decrease | reduced | significant decrease | significant decrease |
| C[C@@H]1C[C@H]2[C@@H]3CCC4=CC(=O)C=C[C@]4(C)[C@@]3(F)[C@@H](O)C[C@]2(C)[C@@]1(O)C(=O)CO [dexamethasone, reference compound] | 1.8±0.45 | – | – | – | 2.5±0.71 | – | – | – | – | – | – | – |
